The subject of this test is endogenous cellular STAT1 (phosphorylated at Tyr701) in NCI-H1373 cells. As to the kind of experiment: Phospho-STAT1 (Tyr701) LANCE Ultra TR-FRET Detection Assay. Type of test: cell-based. Conditions: Homo sapiens, NCI-H1373, 48 h, phospho-STAT1 (Tyr701) induction, read-out: NH1373 pSTAT1 EC50. In general terms: In TR-FRET formats the signal depends on donor and acceptor labels being close together.
For `Nc1nc(-c2ccc3c(=O)n(CCC[C@H](COC(F)F)Nc4cn[nH]c(=O)c4C(F)(F)F)ccc3n2)ccc1C(F)(F)F` [Example 405, (R)-2-(6-amino-5-(trifluoromethyl)pyridin-2-yl)-6-(5-(difluoromethoxy)-4-((6-oxo-5-(trifluoromethyl)-1,6-dihydropyridazin-4-yl)amino)pentyl)-1,6-naphthyridin-5(6H)-one], the EC50 was 0.00967 µM.
Under `O=c1[nH]ncc(N[C@H](CCCn2ccc3cc(-c4ccc(C(F)F)cn4)c(F)c(F)c3c2=O)COC(F)F)c1C(F)(F)F` [Example 406, (R)-2-(5-(difluoromethoxy)-4-((6-oxo-5-(trifluoromethyl)-1,6-dihydropyridazin-4-yl)amino)pentyl)-6-(5-(difluoromethyl)pyridin-2-yl)-7,8-difluoroisoquinolin-1(2H)-one] stands 0.00172 µM.
To `C[C@@H](CCCn1cnc2cc(-c3ncc(C(F)(F)F)c(N4CCOCC4)n3)c(F)cc2c1=O)Nc1cn[nH]c(=O)c1C(F)(F)F` [Example 201, (S)-6-fluoro-7-(4-morpholino-5-(trifluoromethyl)pyrimidin-2-yl)-3-(4-((6-oxo-5-(trifluoromethyl)-1,6-dihydropyridazin-4-yl)amino)pentyl)quinazolin-4(3H)-one] belongs 0.00403 µM; to `C[C@@H](CCCn1ccc2cc(-c3nc(N)c4ccccc4n3)c(F)cc2c1=O)Nc1cn[nH]c(=O)c1C(F)(F)F` [Example 363, (S)-6-(4-aminoquinazolin-2-yl)-7-fluoro-2-(4-((6-oxo-5-(trifluoromethyl)-1,6-dihydropyridazin-4-yl)amino)pentyl)isoquinolin-1(2H)-one], 0.00328 µM; to `COc1cnc(-c2cc3ncn(CCC[C@H](C)Nc4cn[nH]c(=O)c4C(F)(F)F)c(=O)c3cc2F)nc1NC1CC1` [Example 220, (S)-7-(4-(cyclopropylamino)-5-methoxypyrimidin-2-yl)-6-fluoro-3-(4-((6-oxo-5-(trifluoromethyl)-1,6-dihydropyridazin-4-yl)amino)pentyl)quinazolin-4(3H)-one], 0.195 µM.
To `CC[C@@H](CCCn1ccc2cc(-c3ncc(C(F)(F)F)c(N)n3)c(F)c(F)c2c1=O)Nc1cn[nH]c(=O)c1C(F)(F)F` [Example 348, (S)-6-(4-amino-5-(trifluoromethyl)pyrimidin-2-yl)-7,8-difluoro-2-(4-((6-oxo-5-(trifluoromethyl)-1,6-dihydropyridazin-4-yl)amino)hexyl)isoquinolin-1(2H)-one] belongs 0.00647 µM.
As to `C[C@@H](CCCn1ccc2cc(-c3cnc(C(F)F)c(N)n3)c(F)cc2c1=O)Nc1cn[nH]c(=O)c1C(F)(F)F` [Example 324, (S)-6-(6-amino-5-(difluoromethyl)pyrazin-2-yl)-7-fluoro-2-(4-((6-oxo-5-(trifluoromethyl)-1,6-dihydropyridazin-4-yl)amino)pentyl)isoquinolin-1(2H)-one], the EC50 stood at 0.00465 µM.
To `C[C@@H](CCCn1cnc2cc(-c3ncc(C(F)F)cn3)c(F)cc2c1=O)Nc1cn[nH]c(=O)c1C(F)(F)F` [Example 82, (S)-7-(5-(difluoromethyl)pyrimidin-2-yl)-6-fluoro-3-(4-((6-oxo-5-(trifluoromethyl)-1,6-dihydropyridazin-4-yl)amino)pentyl)quinazolin-4(3H)-one] belongs 0.0634 µM.
Under `O=c1[nH]ncc(N2CC[C@@H]2CCCn2cnc3cc(-c4ncc(C(F)(F)F)cn4)c(F)cc3c2=O)c1C(F)(F)F` (single isomer, unassigned) [Example 151] stands 0.0587 µM.
To `C[C@@H](CCCn1ccc2cc(-c3ncc(C(C)(C)O)cn3)c(F)cc2c1=O)Nc1cn[nH]c(=O)c1C(F)(F)F` [Example 74, 7-fluoro-6-[5-(1-hydroxy-1-methyl-ethyl)pyrimidin-2-yl]-2-[(4S)-4-[[6-oxo-5-(trifluoromethyl)-1H-pyridazin-4-yl]amino]pentyl]isoquinolin-1-one] belongs 0.0653 µM; to `C[C@@H]1C[C@H](C)N1c1nc(-c2cc3ccn(CCC[C@H](C)Nc4cn[nH]c(=O)c4C(F)(F)F)c(=O)c3cc2F)ncc1C(F)(F)F` [Example 318, 6-(4-((2R,4S)-2,4-dimethylazetidin-1-yl)-5-(trifluoromethyl)pyrimidin-2-yl)-7-fluoro-2-((S)-4-((6-oxo-5-(trifluoromethyl)-1,6-dihydropyridazin-4-yl)amino)pentyl)isoquinolin-1(2H)-one], 0.0286 µM.
Turning to `O=c1[nH]ncc(N[C@H]2CCC[C@H](Cn3ccc4cc(-c5ncc(C(F)(F)F)cn5)c(F)cc4c3=O)C2)c1C(F)(F)F` [Example 228, 7-fluoro-2-(((1S,3S)-3-((6-oxo-5-(trifluoromethyl)-1,6-dihydropyridazin-4-yl)amino)cyclohexyl)methyl)-6-(5-(trifluoromethyl)pyrimidin-2-yl)isoquinolin-1(2H)-one], the concentration giving a half-maximal response (EC50) came out at 10 µM.
As to `C[C@@H](CCCn1ccc2cc(-c3ncc(-c4cc(C(F)(F)F)n(C)n4)cn3)c(F)cc2c1=O)Nc1cn[nH]c(=O)c1C(F)(F)F` [Example 93, (S)-7-fluoro-6-(5-(1-methyl-5-(trifluoromethyl)-1H-pyrazol-3-yl)pyrimidin-2-yl)-2-(4-((6-oxo-5-(trifluoromethyl)-1,6-dihydropyridazin-4-yl)amino)pentyl)isoquinolin-1(2H)-one], the EC50 is 0.0459 µM.
For `Nc1nc(-c2cc3ncn(C[C@@H]4CCC[C@H](Nc5cn[nH]c(=O)c5C(F)(F)F)C4)c(=O)c3cc2F)cnc1C(F)(F)F` [Example 254, 7-(6-amino-5-(trifluoromethyl)pyrazin-2-yl)-6-fluoro-3-(((1R,3S)-3-((6-oxo-5-(trifluoromethyl)-1,6-dihydropyridazin-4-yl)amino)cyclohexyl)methyl)quinazolin-4(3H)-one], the 50% effective concentration (EC50) worked out at 0.0319 µM.
To `Nc1nc(-c2cc3ccn(CCC[C@H](COC(F)F)Nc4cn[nH]c(=O)c4C(F)(F)F)c(=O)c3cc2F)ccc1F` [Example 409, (R)-6-(6-amino-5-fluoropyridin-2-yl)-2-(5-(difluoromethoxy)-4-((6-oxo-5-(trifluoromethyl)-1,6-dihydropyridazin-4-yl)amino)pentyl)-7-fluoroisoquinolin-1(2H)-one] belongs 0.00449 µM; to `COc1cnc(-c2cc3ccn(CCC[C@H](C)Nc4cn[nH]c(=O)c4C(F)(F)F)c(=O)c3cc2F)nc1NC1(C(F)F)CC1` [Example 219, (S)-6-(4-((1-(difluoromethyl)cyclopropyl)amino)-5-methoxypyrimidin-2-yl)-7-fluoro-2-(4-((6-oxo-5-(trifluoromethyl)-1,6-dihydropyridazin-4-yl)amino)pentyl)isoquinolin-1(2H)-one], 0.43 µM.
Under `Nc1nc(-c2cc3ccn(C[C@@H]4CCC[C@H](Nc5cn[nH]c(=O)c5C(F)(F)F)C4)c(=O)c3cc2F)cnc1C(F)(F)F` [Example 249, 6-(6-amino-5-(trifluoromethyl)pyrazin-2-yl)-7-fluoro-2-(((1R,3S)-3-((6-oxo-5-(trifluoromethyl)-1,6-dihydropyridazin-4-yl)amino)cyclohexyl)methyl)isoquinolin-1(2H)-one] stands 0.0324 µM; under `Cc1nc(-c2cc3ccn(C[C@@H]4CCC[C@H](Nc5cn[nH]c(=O)c5C(F)(F)F)C4)c(=O)c3cc2F)nc(N)c1Cl` [Example 276, 6-(4-amino-5-chloro-6-methylpyrimidin-2-yl)-7-fluoro-2-(((1R,3S)-3-((6-oxo-5-(trifluoromethyl)-1,6-dihydropyridazin-4-yl)amino)cyclohexyl)methyl)isoquinolin-1(2H)-one], 0.0103 µM; under `NC1(c2cnc(-c3cc4ccn(C[C@@H]5CCC[C@H](Nc6cn[nH]c(=O)c6C(F)(F)F)C5)c(=O)c4cc3F)cn2)COC1` [Example 275, 6-(5-(3-aminooxetan-3-yl)pyrazin-2-yl)-7-fluoro-2-(((1R,3S)-3-((6-oxo-5-(trifluoromethyl)-1,6-dihydropyridazin-4-yl)amino)cyclohexyl)methyl)isoquinolin-1(2H)-one], 0.2 µM.
Regarding `Nc1nc(-c2cc3ccn(CCC[C@@H]4CCCN4c4cn[nH]c(=O)c4C(F)(F)F)c(=O)c3cc2F)ncc1C(F)(F)F` [Example 121, (S)-6-(4-amino-5-(trifluoromethyl)pyrimidin-2-yl)-7-fluoro-2-(3-(1-(6-oxo-5-(trifluoromethyl)-1,6-dihydropyridazin-4-yl)pyrrolidin-2-yl)propyl)isoquinolin-1(2H)-one], the concentration giving a half-maximal response (EC50) came to 0.00516 µM.
As for `Nc1nc(-c2cc3ccn(Cc4cccc(Nc5cn[nH]c(=O)c5C(F)(F)F)c4)c(=O)c3cc2F)ncc1C(F)(F)F` [Example 438, 6-(4-amino-5-(trifluoromethyl)pyrimidin-2-yl)-7-fluoro-2-(3-((6-oxo-5-(trifluoromethyl)-1,6-dihydropyridazin-4-yl)amino)benzyl)isoquinolin-1(2H)-one], the concentration giving a half-maximal response (EC50) is 0.0231 µM.
To `O=c1[nH]ncc(N[C@H]2CCC[C@@H](Cn3cc(F)c4cc(-c5ncc(C(F)(F)F)cn5)c(F)cc4c3=O)C2)c1C(F)(F)F` [Example 481, 4,7-difluoro-2-(((1R,3S)-3-((6-oxo-5-(trifluoromethyl)-1,6-dihydropyridazin-4-yl)amino)cyclohexyl)methyl)-6-(5-(trifluoromethyl)pyrimidin-2-yl)isoquinolin-1(2H)-one] belongs 0.00324 µM.
In the case of `O=c1[nH]ncc(N[C@H]2CCC[C@@H](Cn3ccc4cc(-c5ncc(OCCO)cn5)c(F)cc4c3=O)C2)c1C(F)(F)F` [Example 495, 7-fluoro-6-[5-(2-hydroxyethoxy)pyrimidin-2-yl]-2-[[(1R,3S)-3-[[6-oxo-5-(trifluoromethyl)-1H-pyridazin-4-yl]amino]cyclohexyl]methyl]isoquinolin-1-one], the concentration giving a half-maximal response (EC50) was 0.029 µM.
With `Nc1nc(-c2cc3ncn(CCC[C@H](COC(F)F)Nc4cn[nH]c(=O)c4C(F)(F)F)c(=O)c3cc2F)ncc1C(F)F` [Example 383, (R)-7-(4-amino-5-(difluoromethyl)pyrimidin-2-yl)-3-(5-(difluoromethoxy)-4-((6-oxo-5-(trifluoromethyl)-1,6-dihydropyridazin-4-yl)amino)pentyl)-6-fluoroquinazolin-4(3H)-one], the 50% effective concentration (EC50) was found to be 0.0185 µM.
Under `COc1cnc(-c2cc3ccn(CCC[C@H](C)Nc4cn[nH]c(=O)c4C(F)(F)F)c(=O)c3cc2F)nc1N1CC(F)(F)C1` [Example 210] stands 0.132 µM.

A word on the EC50: it is the concentration needed to bring the measured effect to its halfway point.

Source of the values: patent publication US12459922B2 (Gilead Sciences, Inc., priority 2022, dated 2025).
